Residues, ends and D or L forms follow the SMILES beside them. *: point of attachment. X1 = CSc1ncccc1C(=O)*
What was measured:
[1] = target: T1, Neuropeptide Y receptor type 1 (Homo sapiens, UniProt P25929); test: Displacement of [125I]PYY from human NPY1
T1 sequence (P25929 whole entry): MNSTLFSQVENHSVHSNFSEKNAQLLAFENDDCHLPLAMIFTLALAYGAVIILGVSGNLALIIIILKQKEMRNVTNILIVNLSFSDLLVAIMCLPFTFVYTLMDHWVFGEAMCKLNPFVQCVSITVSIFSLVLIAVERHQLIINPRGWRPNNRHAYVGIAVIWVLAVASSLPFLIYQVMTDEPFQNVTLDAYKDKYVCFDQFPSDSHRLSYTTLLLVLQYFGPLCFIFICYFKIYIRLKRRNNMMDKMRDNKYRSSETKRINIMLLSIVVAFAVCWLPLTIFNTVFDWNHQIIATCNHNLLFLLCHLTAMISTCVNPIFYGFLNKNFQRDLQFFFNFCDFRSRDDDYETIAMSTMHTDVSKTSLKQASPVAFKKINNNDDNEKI

[2] = target: T2, Neuropeptide Y receptor type 5 (Homo sapiens, UniProt Q15761); test: Displacement of [125I]PYY from human NPY5
T2 sequence (Q15761 whole entry): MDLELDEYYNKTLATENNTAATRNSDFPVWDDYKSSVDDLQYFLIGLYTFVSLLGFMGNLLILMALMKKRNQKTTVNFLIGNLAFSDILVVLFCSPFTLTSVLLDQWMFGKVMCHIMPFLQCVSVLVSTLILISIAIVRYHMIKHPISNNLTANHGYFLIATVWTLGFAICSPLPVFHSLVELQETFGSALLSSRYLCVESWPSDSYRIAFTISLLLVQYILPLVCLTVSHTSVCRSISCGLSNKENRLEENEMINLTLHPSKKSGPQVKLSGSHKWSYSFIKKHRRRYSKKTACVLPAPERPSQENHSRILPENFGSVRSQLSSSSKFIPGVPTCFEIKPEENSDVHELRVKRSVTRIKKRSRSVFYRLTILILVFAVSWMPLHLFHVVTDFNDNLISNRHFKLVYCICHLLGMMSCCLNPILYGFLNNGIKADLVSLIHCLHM

[3] = target: T3, Neuropeptide Y receptor type 2 (Homo sapiens, UniProt P49146); test: Displacement of [125I]PYY from human NPY2
T3 sequence (P49146 whole entry): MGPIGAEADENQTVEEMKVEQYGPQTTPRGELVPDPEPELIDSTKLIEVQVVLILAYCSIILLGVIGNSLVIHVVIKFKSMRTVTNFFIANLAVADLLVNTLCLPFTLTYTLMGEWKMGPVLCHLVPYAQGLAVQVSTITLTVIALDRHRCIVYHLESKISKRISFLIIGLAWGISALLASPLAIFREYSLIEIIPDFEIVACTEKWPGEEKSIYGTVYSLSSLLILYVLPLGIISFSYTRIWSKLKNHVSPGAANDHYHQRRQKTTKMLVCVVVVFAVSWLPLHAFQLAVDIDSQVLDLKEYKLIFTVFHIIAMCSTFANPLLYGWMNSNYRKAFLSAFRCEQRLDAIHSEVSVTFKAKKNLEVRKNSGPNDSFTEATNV

[4] = target: T3, Neuropeptide Y receptor type 2; test: Agonist activity at human NPY2 by [35S]GTPgammaS […] assay; assay type: functional

Ki [1]: > 1000 nM
Ki [2]: > 1000 nM
Ki [3]: 11 nM (antagonist)
EC50 [4]: 4 nM (agonist)
SMILES: CSc1ncccc1C(=O)N[C@@H](CCCNC(=N)N)C(=O)N[C@@H](Cc1cnc[nH]1)C(=O)N[C@@H](Cc1ccc(O)cc1)C(=O)N[C@@H](CC(C)C)C(=O)N[C@@H](CC(N)=O)C(=O)N[C@@H](CC(C)C)C(=O)N[C@@H](CC(C)C)C(=O)N[C@H](C(=O)N[C@@H](CCCNC(=N)N)C(=O)N[C@@H](CCC(N)=O)C(=O)N[C@@H](CCCNC(=N)N)C(=O)N[C@@H](Cc1ccc(O)cc1)C(N)=O)[C@@H](C)O (X1-RHYLNLLTRQRY-NH2)
